Drawing on PubChem BioAssay (NCI), this text covers TGI for eleven compounds.

Test systems include M14 melanoma; SF-295 CNS; OVCAR-4 ovarian; OVCAR-8 ovarian; HCT-15 colon; HOP-92 NSCLC; A549 NSCLC; OVCAR-5 ovarian; SF-539 CNS; DU-145 prostate; K-562 leukemia; SF-268 CNS; NCI-H23 lung; OVCAR-3 ovarian; CAKI-1 renal; IGROV1 ovarian; SK-MEL-2 melanoma; MDA-MB-231 breast; SK-OV-3 ovarian.
Holding throughout (assay): inhibition of tumour cell growth, NCI panel, 48 h

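Briefly, cells in 96-well plates were exposed to five compound concentrations for 48 h, and endpoints were estimated by linear interpolation. The concentration for full growth arrest is given as TGI.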 Where only a bound is given, the exact number is not on record here.

As for `CCOC(=O)NC(Nc1ccc(S(=O)(=O)Nc2ncccn2)cc1)(C(=O)OCC)C(F)(F)F` (centres undefined), the TGI in the test on M14 melanoma, with SF-295 CNS, in the test with OVCAR-4 ovarian, in the test with OVCAR-8 ovarian, in the test on HCT-15 colon and in the test with HOP-92 NSCLC was > 100 µM each time. For the same compound, the TGI in the test with A549 NSCLC, in the test on OVCAR-5 ovarian, in the test with SF-539 CNS, with DU-145 prostate, in the test on K-562 leukemia and with SF-268 CNS was > 100 µM throughout. Moreover, the TGI in the test with NCI-H23 lung, with OVCAR-3 ovarian, in the test with CAKI-1 renal, with IGROV1 ovarian, in the test with SK-MEL-2 melanoma and with MDA-MB-231 breast was > 100 µM throughout. Besides, in the test on SK-OV-3 ovarian, the TGI was > 100 µM.
On to `C=CCN1C(=O)/C(=C/c2ccccc2)NC1=S`, for which the TGI in the test on M14 melanoma, in the test with SF-295 CNS, in the test with OVCAR-4 ovarian, with OVCAR-8 ovarian, in the test with HCT-15 colon and in the test with HOP-92 NSCLC was > 100 µM each time. The TGI in the test on A549 NSCLC, in the test with OVCAR-5 ovarian, in the test with SF-539 CNS, in the test with DU-145 prostate, in the test on K-562 leukemia and in the test with SF-268 CNS was > 100 µM in each case. The TGI in the test with NCI-H23 lung, with OVCAR-3 ovarian, with CAKI-1 renal, in the test on IGROV1 ovarian, in the test on SK-MEL-2 melanoma and in the test with MDA-MB-231 breast was > 100 µM each time. For the same compound, the TGI in the test on SK-OV-3 ovarian is > 100 µM.
For the compound `COc1ccccc1N1C(=O)/C(=C\c2cccc(Oc3ccccc3)c2)SC1c1ccccc1` (centres undefined), the TGI with M14 melanoma, in the test on SF-295 CNS, in the test with OVCAR-4 ovarian, with OVCAR-8 ovarian, in the test on HCT-15 colon and in the test on HOP-92 NSCLC was > 100 µM in each case. For the same compound, the TGI in the test on A549 NSCLC, in the test with OVCAR-5 ovarian, in the test on SF-539 CNS, in the test with DU-145 prostate, in the test with K-562 leukemia and with SF-268 CNS was > 100 µM throughout. The TGI in the test with NCI-H23 lung was 98.1 µM; in the test with OVCAR-3 ovarian it was > 100 µM; with CAKI-1 renal it was > 100 µM; in the test with IGROV1 ovarian it was > 100 µM; in the test with SK-MEL-2 melanoma, > 100 µM; in the test on MDA-MB-231 breast it was > 100 µM. In the test on SK-OV-3 ovarian, the TGI is > 100 µM.
As for `CCCN(CCCCC(NC(C)=O)C(=O)NCc1ccccc1)C(=O)N(CCCl)N=O` (centres undefined), the TGI with M14 melanoma, in the test on SF-295 CNS, in the test with OVCAR-4 ovarian, with OVCAR-8 ovarian, in the test on HCT-15 colon and with HOP-92 NSCLC was > 100 µM each time. The TGI was > 100 µM with A549 NSCLC; > 100 µM in the test on OVCAR-5 ovarian; 41.1 µM in the test with SF-539 CNS; > 100 µM in the test on DU-145 prostate; > 100 µM in the test with K-562 leukemia; > 100 µM in the test on SF-268 CNS. Further, the TGI is 98.5 µM in the test on NCI-H23 lung; > 100 µM with OVCAR-3 ovarian; > 100 µM in the test on CAKI-1 renal; > 100 µM with IGROV1 ovarian; > 100 µM with SK-MEL-2 melanoma; > 100 µM with MDA-MB-231 breast. In the test with SK-OV-3 ovarian, the TGI is > 100 µM.
For the compound `Cc1ccc(S(=O)(=O)OC2C3OC(C)(C)OC3OC2C(c2cc(O)c3c(c2O)C(=O)c2ccccc2C3=O)c2cc(O)c3c(c2O)C(=O)c2ccccc2C3=O)cc1` (centres undefined), the TGI in the test with M14 melanoma, in the test on SF-295 CNS, in the test with OVCAR-4 ovarian, in the test with OVCAR-8 ovarian, in the test with HCT-15 colon and with HOP-92 NSCLC was > 10 µM throughout. Moreover, the TGI with A549 NSCLC, in the test on OVCAR-5 ovarian, in the test on SF-539 CNS, in the test on DU-145 prostate, with K-562 leukemia and in the test on SF-268 CNS was > 10 µM in each case. For the same compound, the TGI in the test with NCI-H23 lung, in the test on OVCAR-3 ovarian, in the test with CAKI-1 renal, in the test on IGROV1 ovarian, in the test on SK-MEL-2 melanoma and with MDA-MB-231 breast was > 10 µM throughout. For the same compound, the TGI with SK-OV-3 ovarian was > 10 µM.
Take `CCOC(=O)C(Cl)(NC(=O)c1ccc(F)cc1)C(F)(F)F` (centres undefined): the TGI with M14 melanoma, with SF-295 CNS, with OVCAR-4 ovarian, with OVCAR-8 ovarian, in the test with HCT-15 colon and with HOP-92 NSCLC was > 100 µM throughout. The TGI in the test on A549 NSCLC, in the test with OVCAR-5 ovarian, in the test on SF-539 CNS, with DU-145 prostate, with K-562 leukemia and with SF-268 CNS was > 100 µM in each case. In addition, the TGI in the test on NCI-H23 lung, with OVCAR-3 ovarian, with CAKI-1 renal, in the test on IGROV1 ovarian, in the test on SK-MEL-2 melanoma and with MDA-MB-231 breast was > 100 µM throughout. For the same compound, the TGI in the test on SK-OV-3 ovarian is > 100 µM.
Turning to `COC12C=CC(CC1)C(C)(C)C2=O` (centres undefined), the TGI in the test with M14 melanoma, with SF-295 CNS, with OVCAR-4 ovarian, with OVCAR-8 ovarian, in the test with HCT-15 colon and in the test with HOP-92 NSCLC was > 100 µM throughout. In addition, the TGI with A549 NSCLC, in the test on OVCAR-5 ovarian, in the test with SF-539 CNS, in the test on DU-145 prostate, in the test with K-562 leukemia and with SF-268 CNS was > 100 µM each time. Moreover, the TGI with NCI-H23 lung, in the test with OVCAR-3 ovarian, in the test with CAKI-1 renal, with IGROV1 ovarian, in the test with SK-MEL-2 melanoma and in the test on MDA-MB-231 breast was > 100 µM each time. Besides, the TGI in the test on SK-OV-3 ovarian is > 100 µM.
On to `CC(=O)NCc1nc(C#N)c(N)o1`, for which the TGI in the test with M14 melanoma, in the test with SF-295 CNS, with OVCAR-4 ovarian, with OVCAR-8 ovarian, in the test on HCT-15 colon and in the test with HOP-92 NSCLC was > 100 µM each time. The TGI in the test on A549 NSCLC, in the test with OVCAR-5 ovarian, in the test on SF-539 CNS, in the test on DU-145 prostate, in the test with K-562 leukemia and in the test with SF-268 CNS was > 100 µM each time. For the same compound, the TGI with NCI-H23 lung, in the test with OVCAR-3 ovarian, in the test on CAKI-1 renal, with IGROV1 ovarian, in the test on SK-MEL-2 melanoma and in the test with MDA-MB-231 breast was > 100 µM each time. Besides, the TGI with SK-OV-3 ovarian was > 100 µM.
On to `CC/C(=N/O)c1ccc(Br)s1`, for which the TGI with M14 melanoma, in the test with SF-295 CNS, in the test on OVCAR-4 ovarian, in the test with OVCAR-8 ovarian, with HCT-15 colon and in the test on HOP-92 NSCLC was > 100 µM in each case. The TGI with A549 NSCLC, in the test with OVCAR-5 ovarian, in the test on SF-539 CNS, in the test with DU-145 prostate, with K-562 leukemia and with SF-268 CNS was > 100 µM each time. The TGI with NCI-H23 lung, with OVCAR-3 ovarian, with CAKI-1 renal, with IGROV1 ovarian, in the test with SK-MEL-2 melanoma and with MDA-MB-231 breast was > 100 µM each time. Besides, the TGI with SK-OV-3 ovarian was > 100 µM.
With `CC1CN=C(Nc2ccc(S(N)(=O)=O)cc2)S1` (centres undefined), the TGI with M14 melanoma, in the test with SF-295 CNS, in the test with OVCAR-4 ovarian, in the test on OVCAR-8 ovarian, with HCT-15 colon and with HOP-92 NSCLC was > 100 µM each time. For the same compound, the TGI in the test with A549 NSCLC, in the test with OVCAR-5 ovarian, with SF-539 CNS, in the test on DU-145 prostate, in the test on K-562 leukemia and with SF-268 CNS was > 100 µM in each case. The TGI in the test on NCI-H23 lung, in the test on OVCAR-3 ovarian, in the test with CAKI-1 renal, in the test with IGROV1 ovarian, with SK-MEL-2 melanoma and in the test with MDA-MB-231 breast was > 100 µM throughout. Moreover, the TGI in the test with SK-OV-3 ovarian was > 100 µM.
Take `O=C(CCc1ccc(O)cc1)NCCc1ccc(O)cc1`: the TGI in the test with M14 melanoma, in the test on SF-295 CNS, in the test with OVCAR-4 ovarian, in the test with OVCAR-8 ovarian, with HCT-15 colon and in the test on HOP-92 NSCLC was > 100 µM throughout. Also, the TGI in the test on A549 NSCLC, in the test with OVCAR-5 ovarian, with SF-539 CNS, with DU-145 prostate, with K-562 leukemia and in the test with SF-268 CNS was > 100 µM in each case. Further, the TGI in the test with NCI-H23 lung, in the test on OVCAR-3 ovarian, in the test on CAKI-1 renal, in the test with IGROV1 ovarian, in the test with SK-MEL-2 melanoma and in the test with MDA-MB-231 breast was > 100 µM each time. For the same compound, in the test with SK-OV-3 ovarian, the TGI is > 100 µM.
